Patent publication US20100216779A1 (GLAXOSMITHKLINE LLC, priority 2007, published 2010)

Legend:
Assay type in all cases: cell-based
COLO205 (colon) = experiment: Inhibition of cell proliferation, CellTiter-Glo, COLO205; conditions: Homo sapiens, COLO 205, 72 h
How it was run: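 Exponentially growing COLO205 cells in medium with 10% FBS were plated below 2000 cells/well at 37 °C, 5% CO2. Untreated wells served as controls.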

[1] = system: NCI-H929 (multiple myeloma); experiment: Inhibition of cell proliferation, CellTiter-Glo, NCI-H929; conditions: Homo sapiens, 72 h
Experimental: C. Inhibition of Cell Proliferation
Cell proliferation was measured by either CellTiter-Glo (measures cellular ATP level as a surrogate for total cell number) or by InCell analyzer (counts number of nuclei as a measure of cell number). For CellTiter-Glo assay, exponentially growing cell lines of different tumor origins, cultured in appropriate media containing 10% fetal bovine serum at 37° C. in a 5% CO2 incubator, were plated at low density (less than 2000 cells/well) in 96-well plates. Twenty four hours post-plating, cells were treated with different concentrations of test compounds ranging from 30 uM to 1.5 nM. Several wells were left untreated as a control. Seventy two hours post-treatment, cell numbers were determined using 50-100 ul per well of CellTiter-Glo (Promega #G7573). Plates were incubated at 37° C. for 30 minutes and the chemiluminescent signal was read on the Victor V or Envison 2100 reader. […]

[2] = target: T1, human IGF-1R (NIH-3T3 cells over expressing human IGF-1R) (Homo sapiens, UniProt P08069); experiment: IGF-1R cellular autophosphorylation (DELFIA); conditions: IGF-1 stimulated
T1 construct: expressed in transfected cells; host or cells: NIH-3T3 (mouse fibroblasts)
How it was run: (§1)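 Readout: DELFIA on lysates, with anti-IGF-1R or anti-IR capture and europium anti-pTyr detection, expressed relative to 100% ligand-stimulated signal. Human IGF-1R- or IR-overexpressing NIH-3T3 cells got compound (1.5 nM–30 uM) for 2 h before 15 min IGF-1 (30 ng/mL) or insulin (3 ug/mL).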

[3] = target: T2, IR (NIH-3T3 cells over expressing human IGF-1R or IR) (Homo sapiens, UniProt P06213); experiment: IR cellular autophosphorylation (DELFIA); conditions: NIH-3T3 cells over expressing IR, insulin stimulated
T2 construct: expressed in transfected cells; host or cells: NIH-3T3 (mouse fibroblasts)
How it was run: as §1

T2 sequence (P06213 28-1382): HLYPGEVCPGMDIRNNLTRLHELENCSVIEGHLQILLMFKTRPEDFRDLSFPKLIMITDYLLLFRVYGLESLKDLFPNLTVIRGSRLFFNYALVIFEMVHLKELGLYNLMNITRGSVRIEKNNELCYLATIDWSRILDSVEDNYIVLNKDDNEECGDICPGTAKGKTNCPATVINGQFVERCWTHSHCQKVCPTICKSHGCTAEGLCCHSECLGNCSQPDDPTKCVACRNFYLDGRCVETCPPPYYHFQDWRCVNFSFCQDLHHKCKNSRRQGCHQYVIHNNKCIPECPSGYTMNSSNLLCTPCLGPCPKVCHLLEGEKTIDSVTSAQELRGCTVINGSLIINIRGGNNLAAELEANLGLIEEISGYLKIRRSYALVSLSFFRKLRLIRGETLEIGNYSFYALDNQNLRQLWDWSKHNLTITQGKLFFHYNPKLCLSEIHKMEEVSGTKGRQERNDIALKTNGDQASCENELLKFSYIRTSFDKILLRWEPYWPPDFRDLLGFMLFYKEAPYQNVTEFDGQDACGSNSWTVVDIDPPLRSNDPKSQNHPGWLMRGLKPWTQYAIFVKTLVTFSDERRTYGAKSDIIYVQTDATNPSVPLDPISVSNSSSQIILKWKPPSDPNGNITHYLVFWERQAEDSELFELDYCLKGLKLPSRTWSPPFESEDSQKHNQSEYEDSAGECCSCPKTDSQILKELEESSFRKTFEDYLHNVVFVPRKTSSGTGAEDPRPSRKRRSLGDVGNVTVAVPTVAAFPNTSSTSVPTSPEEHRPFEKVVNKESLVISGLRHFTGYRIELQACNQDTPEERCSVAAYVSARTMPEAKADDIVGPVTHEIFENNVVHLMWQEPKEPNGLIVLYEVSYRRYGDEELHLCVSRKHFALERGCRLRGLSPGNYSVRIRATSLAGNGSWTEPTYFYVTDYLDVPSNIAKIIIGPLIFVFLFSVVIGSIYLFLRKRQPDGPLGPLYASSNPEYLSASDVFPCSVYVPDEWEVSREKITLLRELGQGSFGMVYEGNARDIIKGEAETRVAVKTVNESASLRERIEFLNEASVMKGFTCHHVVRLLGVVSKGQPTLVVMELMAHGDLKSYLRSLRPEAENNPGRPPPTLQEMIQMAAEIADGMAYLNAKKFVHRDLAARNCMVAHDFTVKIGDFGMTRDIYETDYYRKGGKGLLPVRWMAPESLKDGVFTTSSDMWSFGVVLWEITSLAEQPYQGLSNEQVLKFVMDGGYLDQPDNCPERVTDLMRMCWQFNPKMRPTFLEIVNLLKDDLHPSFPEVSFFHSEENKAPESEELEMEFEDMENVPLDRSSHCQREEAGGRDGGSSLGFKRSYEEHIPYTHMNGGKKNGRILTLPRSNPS
T1 sequence (P08069 31-1367): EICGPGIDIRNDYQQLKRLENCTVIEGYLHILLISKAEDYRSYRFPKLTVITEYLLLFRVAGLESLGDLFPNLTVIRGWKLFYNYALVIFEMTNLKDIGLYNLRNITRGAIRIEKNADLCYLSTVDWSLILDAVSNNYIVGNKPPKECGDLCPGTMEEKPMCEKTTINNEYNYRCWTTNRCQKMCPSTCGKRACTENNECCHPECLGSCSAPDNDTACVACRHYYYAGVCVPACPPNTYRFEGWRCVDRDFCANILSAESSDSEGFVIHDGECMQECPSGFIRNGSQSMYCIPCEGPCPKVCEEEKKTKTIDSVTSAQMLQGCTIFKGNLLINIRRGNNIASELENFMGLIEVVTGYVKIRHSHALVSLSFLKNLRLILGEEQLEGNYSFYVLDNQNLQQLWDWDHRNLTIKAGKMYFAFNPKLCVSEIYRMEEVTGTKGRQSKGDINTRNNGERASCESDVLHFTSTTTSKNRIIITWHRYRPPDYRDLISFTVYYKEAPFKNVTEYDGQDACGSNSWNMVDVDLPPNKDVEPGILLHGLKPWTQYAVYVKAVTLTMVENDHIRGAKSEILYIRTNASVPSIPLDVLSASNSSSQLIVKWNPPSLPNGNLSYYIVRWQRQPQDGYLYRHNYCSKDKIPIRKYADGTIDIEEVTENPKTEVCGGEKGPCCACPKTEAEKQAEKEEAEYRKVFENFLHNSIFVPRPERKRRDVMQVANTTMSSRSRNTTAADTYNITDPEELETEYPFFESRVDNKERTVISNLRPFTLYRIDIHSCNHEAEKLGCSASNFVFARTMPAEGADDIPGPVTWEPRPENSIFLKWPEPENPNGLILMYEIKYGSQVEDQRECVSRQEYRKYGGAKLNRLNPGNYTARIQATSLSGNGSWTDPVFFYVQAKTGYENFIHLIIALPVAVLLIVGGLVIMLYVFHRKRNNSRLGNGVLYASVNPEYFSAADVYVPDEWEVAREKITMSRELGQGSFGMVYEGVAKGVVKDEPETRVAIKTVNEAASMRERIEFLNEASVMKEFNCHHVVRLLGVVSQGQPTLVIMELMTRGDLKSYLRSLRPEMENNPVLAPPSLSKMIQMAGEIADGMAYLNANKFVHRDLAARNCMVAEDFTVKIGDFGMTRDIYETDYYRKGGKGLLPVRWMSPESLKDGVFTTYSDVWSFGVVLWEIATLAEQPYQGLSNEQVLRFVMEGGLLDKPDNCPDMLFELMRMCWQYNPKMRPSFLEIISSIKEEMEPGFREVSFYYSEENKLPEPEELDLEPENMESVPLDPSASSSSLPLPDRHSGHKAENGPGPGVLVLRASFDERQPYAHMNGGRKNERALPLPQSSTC

SMILES | IC50 (COLO205 (colon)) [nM] | IC50 [1] [nM] | IC50 [2] [nM] | IC50 [3] [nM]
CCOc1cc(N2CCC(N3CCN(CCS(C)(=O)=O)CC3)CC2)ccc1Nc1nccc(-c2c(-c3cccc(C(=O)Nc4c(F)cccc4F)c3)nc3ccccn23)n1 [Example 119, N-(2,6-difluorophenyl)-3-[3-(2-{[2-(ethyloxy)-4-(4-{4-[2-(methylsulfonyl)ethyl]-1-piperazin-yl]-1-piperidinyl)phenyl]amino}-4-pyrimidinyl)imidazo[1,2-a]pyridin-2-yl]benzamide] | 250 to 1000 | < 250 | < 100 | < 100
COc1cc(N2CCC(C3CCN(CCS(C)(=O)=O)CC3)CC2)ccc1Nc1nccc(-c2c(-c3cccc(C(=O)Nc4c(F)cccc4F)c3)nc3ccccn23)n1 [Example 97, N-(2,6-difluorophenyl)-3-(3-{2-[(2-(methyloxy)-4-{1′-[2-(methylsulfonyl)ethyl]-4,4′-bipiperidin-1-yl}phenyl)amino]-4-pyrimidinyl}imidazo[1,2-a]pyridin-2-yl)benzamide] | 250 to 1000 | 250 to 1000 | < 100 | < 100
CCOc1cc(N2CCN(C(C)C)CC2)ccc1Nc1nccc(-c2c(-c3ccc(OC)c(C(=O)Nc4c(F)cccc4F)c3)nc3ccccn23)n1 [Example 172, N-(2,6-difluorophenyl)-5-{3-[2-({2-(ethyloxy)-4-[4-(1-methylethyl)-1-piperazinyl]phenyl}-amino)-4-pyrimidinyl]imidazo[1,2-a]pyridin-2-yl}-2-(methyloxy)benzamide] | 250 to 1000 | < 250 | < 100 | < 100
CCCN1CCN(c2ccc(Nc3nccc(-c4c(-c5ccc(OC)c(C(=O)Nc6c(F)cccc6F)c5)nc5ccccn45)n3)c(OCC)c2)CC1 [Example 151, N-(2,6-difluorophenyl)-5-[3-(2-{[2-(ethyloxy)-4-[4-propyl-1-piperazinyl)phenyl]amino}-4-pyrimidinyl)imidazo[1,2-a]pyridin-2-yl]-2-(methyloxy)benzamide] | 250 to 1000 | < 250 | < 100 | < 100
COc1cc(N2CCC(N3CCN(CCF)CC3)CC2)ccc1Nc1nccc(-c2c(-c3cccc(C(=O)Nc4c(F)cccc4F)c3)nc3cc(F)ccn23)n1 [Example 194, N-(2,6-difluorophenyl)-3-[7-fluoro-3-(2-{[4-{4-[4-(2-fluoroethyl)-1-piperazinyl]-1-piperidinyl}-2-(methyloxy)phenyl]amino]-4-pyrimidinyl)imidazo[1,2-a]pyridin-2-yl]benzamide] | 250 to 1000 | 250 to 1000 | < 100 | 100 to 500
CCOc1ccc(-c2nc3ccccn3c2-c2ccnc(Nc3ccc(N4CCN(S(C)(=O)=O)CC4)cc3OC)n2)cc1C(=O)Nc1c(F)cccc1F [Example 232, N-(2,6-difluorophenyl)-2-(ethyloxy)-5-{3-[2-({2-(methyloxy)-4-[4-(methylsulfonyl)-1-piperazinyl]phenyl]amino)-4-pyrimidinyl]imidazo[1,2-a]pyridin-2-yl}benzamide] | < 250 | < 250 | < 100 | < 100
COc1cc(N2CCN(S(C)(=O)=O)CC2)c(C)cc1Nc1nccc(-c2c(-c3cccc(C(=O)Nc4c(F)cccc4F)c3)nc3ccccn23)n1 [Example 226, N-(2,6-difluorophenyl)-3-{3-[2-({5-methyl-2-(methyloxy)-4-[4-(methylsulfonyl)-1-piperazinyl]phenyl}amino)-4-pyrimidinyl]imidazo[1,2-a]pyridin-2-yl}benzamide] | < 250 | < 250 | < 100 | < 100
COc1cc(N2CCC(N3CCCCC3)CC2)c(OC)cc1Nc1nccc(-c2c(-c3cccc(C(=O)Nc4c(F)cccc4F)c3)nc3ccccn23)n1 [Example 110, 3-[3-(2-{[4-(1,4′-bipiperidin-1′-yl)-2,5-bis(methyloxy)phenyl]amino}-4-pyrimidinyl)imidazo[1,2-a]pyridin-2-yl]-N-(2,6-difluorophenyl)benzamide] | 250 to 1000 | < 250 | < 100 | < 100
COc1cc(N2CCC(N3CCN(CCF)CC3)CC2)ccc1Nc1nccc(-c2c(-c3cccc(C(=O)Nc4c(F)cccc4F)c3)nc3cc(C(F)(F)F)ccn23)n1 [Example 189, N-(2,6-difluorophenyl)-3-[3-(2-{[4-{4-[4-(2-fluoroethyl)-1-piperazinyl]-1-piperidinyl}-2-(methyloxy)phenyl]amino}-4-pyrimidinyl)-7-(trifluoromethyl)imidazo[1,2-a]pyridin-2-yl]benzamide] | > 1000 | 250 to 1000 | 100 to 500 | > 500

Results, then the molecule that gave them:

IC50 (COLO205 (colon)) [nM] | IC50 [1] [nM] | IC50 [2] [nM] | IC50 [3] [nM] | SMILES
< 250 | < 250 | < 100 | < 100 | COc1cc(N2CCN(CCS(C)(=O)=O)CC2)c(C)cc1Nc1nccc(-c2c(-c3ccc(OC)c(C(=O)Nc4c(F)cccc4F)c3)nc3ccccn23)n1 [Example 149, N-(2,6-difluorophenyl)-5-(3-{2-[(5-methyl-2-(methyloxy)-4-{4-[2-(methylsulfonyl)ethyl]-1-piperazinyl}phenyl)amino]-4-pyrimidinyl}imidazo[1,2-a]pyridin-2-yl)-2-(methyloxy)benzamide]
< 250 | < 250 | < 100 | < 100 | CCOc1ccc(-c2nc3ccccn3c2-c2ccnc(Nc3cc(CC)c(N4CCN(CCS(C)(=O)=O)CC4)cc3OC)n2)cc1C(=O)Nc1c(F)cccc1F [Example 235, N-(2,6-difluorophenyl)-5-(3-{2-[(5-ethyl-2-(methyloxy)-4-{4-[2-(methylsulfonyl)ethyl]-1-piperazinyl}phenyl)amino]-4-pyrimidinyl}imidazo[1,2-a]pyridin-2-yl)-2-(ethyloxy)benzamide]
250 to 1000 | < 250 | < 100 | < 100 | COCCN1CCN(c2cc(OC)c(Nc3nccc(-c4c(-c5ccc(OC)c(C(=O)Nc6c(F)cccc6F)c5)nc5ccccn45)n3)cc2C)CC1 [Example 242, N-(2,6-difluorophenyl)-5-(3-{2-[(5-methyl-2-(methyloxy)-4-{4-[2-(methyloxy)ethyl]-1-piperazinyl}phenyl)amino]-4-pyrimidinyl}imidazo[1,2-a]pyridin-2-yl)-2-(methyloxy)benzamide]
250 to 1000 | < 250 | < 100 | < 100 | COc1cc(N2CCC(N3CCN(S(C)(=O)=O)CC3)CC2)ccc1Nc1nccc(-c2c(-c3cccc(C(=O)Nc4c(F)cccc4F)c3)nc3cc(F)ccn23)n1 [Example 196, N-(2,6-difluorophenyl)-3-(7-fluoro-3-{2-[(2-(methyloxy)-4-{4-[4-(methylsulfonyl)-1-piperazinyl]-1-piperidinyl}phenyl)amino]-4-pyrimidinyl}imidazo[1,2-a]pyridin-2-yl)benzamide]
250 to 1000 | 250 to 1000 | 100 to 500 | 100 to 500 | COc1cc(N2CCC(N3CCN(S(C)(=O)=O)CC3)CC2)ccc1Nc1nccc(-c2c(-c3cccc(C(=O)Nc4c(F)cccc4F)c3)nc3c(C)cccn23)n1 [Example 68, N-(2,6-difluorophenyl)-3-(8-methyl-3-{2-[(2-(methyloxy)-4-{4-[4-(methylsulfonyl)-1-piperazinyl]-1-piperidinyl}phenyl)amino]-4-pyrimidinyl}imidazo[1,2-a]pyridin-2-yl)benzamide]
< 250 | < 250 | < 100 | < 100 | CCOc1ccc(-c2nc3ccccn3c2-c2ccnc(Nc3cc(C)c(N4CCN(CCS(C)(=O)=O)CC4)cc3OC)n2)cc1C(=O)Nc1c(F)cccc1F [Example 150, N-(2,6-difluorophenyl)-2-(ethyloxy)-5-(3-{2-[(5-methyl-2-(methyloxy)-4-{4-[2-(methylsulfonyl)ethyl]-1-piperazinyl}phenyl)amino]-4-pyrimidinyl}imidazo[1,2-a]pyridin-2-yl)benzamide]
< 250 | < 250 | < 100 | < 100 | CCOc1ccc(-c2nc3ccccn3c2-c2ccnc(Nc3cc(C)c(C4CCN(CCS(C)(=O)=O)CC4)cc3OC)n2)cc1C(=O)Nc1c(F)cccc1F [Example 164, N-(2,6-difluorophenyl)-2-(ethyloxy)-5-(3-{2-[(5-methyl-2-(methyloxy)-4-{1-[2-(methylsulfonyl)ethyl]-4-piperidinyl}phenyl)amino]-4-pyrimidinyl}imidazo[1,2-a]pyridin-2-yl)benzamide]
250 to 1000 | < 250 | < 100 | < 100 | COc1cc(N2CCN(C(C)C)CC2)ccc1Nc1nccc(-c2c(-c3ccc(OC)c(C(=O)Nc4c(F)cccc4F)c3)nc3ccccn23)n1 [Example 176, N-(2,6-difluorophenyl)-5-[3-(2-{[4-[4-(1-methylethyl)-1-piperazinyl]-2-(methyloxy)phenyl]-amino}-4-pyrimidinyl)imidazo[1,2-a]pyridin-2-yl]-2-(methyloxy)benzamide]
